Measurements from US10597364B2, “Anthelmintic compounds, compositions and method of using thereof” (priority 2015, dated 2020).
Where two headings read alike, the source gives them in different places.

How the values were obtained:
[1] = tested on: Trichostrongylus colubriformis; experiment: Method F: Trichostrongylus colubriformis in vivo in Mongolian jirds; details: oral gavage, 5 mg/kg, necropsy 3 days after treatment
Method: (§1) Method to test activity of compounds against Trichostrongylus colubriformis in vivo in Mongolian jirds (Meriones unguiculatus). Mongolian jirds, at least five weeks old, that have been immunosuppressed were artificially infected with ensheathed Trichostrongylus colubriformis third instar larvae. Six days after infection, the jirds were treated by oral gavage with the test compounds, dissolved in a mixture of DMSO/corn oil, at doses of 30 mg/kg. Jirds treated only with the placebo (DMSO/corn oil carrier) served as controls. On day 9 (3 days after treatment) the jirds were euthanized and necropsied for recovery of parasites from the stomach. Efficacy was calculated as the average % reduction in the number of worms in each test group compared with the average number of worms from the control group. Compound 6 provided a 99% reduction in nematode infestation in Mongolian jirds treated by oral gavage with the test article at a dose of 5 mg/kg.

Haemonchus contortus [2] = experiment: Method A: Haemonchus contortus L1 larval development/motility screen in microtitre plate; assay type: cell-based; details: 96 h, read-out: motility inhibition
[3] = human, Caco-2, pH 6.5
Method: Permeability of Compounds.
An in vitro model utilizing Caco-2/TC7 cells is employed to assess the permeability characteristics of new chemical entities (NCEs).
The permeability studies were performed under standard conditions in the apical to basolateral (A→B) direction with a pH gradient and a BSA gradient (standard apical medium (0.5% BSA at pH 6.5)/standard basal medium (5% BSA at pH 7.4)); conditions that most closely reflect the conditions in the in vivo situation. Samples were deproteinized by the addition of 400 μl acetonitrile to 200 μl sample, followed by a 20-minute centrifugation at 1730 g. Compound solubilisation: compound solutions at final concentrations of 20 μM were prepared following dilutions of stock solutions (starting from 10 mM in DMSO) in HBSS. Final concentration of DMSO was adjusted to 1%. Analytical conditions: Supernatants recovered following centrifugation were analysed by LC/MS/MS using a reverse phase column and the mobile phases delivered at 0.3 ml/minute in a gradient: water (A) and acetonitrile (B) (each with 0.1% formic acid).
Every experiment (n) represents the mean of 3 filters per experiment.

Haemonchus contortus [4] = experiment: Method E: Haemonchus contortus in vivo in Mongolian jirds; details: oral gavage, 5 mg/kg, necropsy 3 days after treatment
Method: Method to test activity of compounds against Haemonchus contortus in vivo in Mongolian jirds (Meriones unguiculatus).
as §1, with “Mongolian” for “Method to test activity of compounds against Trichostrongylus colubriformis in vivo in Mongolian jirds (Meriones unguiculatus). Mongolian”, “Haemonchus contortus” for “Trichostrongylus colubriformis”, “5” for “30”, “100%” for “99%”

[5] = tested on: microfilaria of Dirofilaria immitis; experiment: Method C: microfilaria of Dirofilaria immitis motility screen; assay type: cell-based; details: read-out: inhibition of the microfilaria's motility
[6] = tested on: anthelmintic-resistant isolate of Haemonchus contortus; experiment: Method B: screen against anthelmintic-resistant (benzimidazole-resistant) isolate of Haemonchus contortus; details: benzimidazole-resistant H. contortus isolate
From the text: The conditions described in method A were used against an isolate of H. contortus found to be functionally resistant against the benzimidazole class of anthelmintics (e.g. 127-fold resistance to thiabendazole).

SMILES	inhibition at 5 µM (Haemonchus contortus [2])	Papp A→B at 20 μM [3]	inhibition at 10 µM ([5]; 24 h)	also measured
N#Cc1ccc(NC2CCC(Oc3cncc(N4CCN(c5ccc(C(F)(F)F)cn5)CC4)c3)CC2)cc1C(F)(F)F (stereo not drawn) [Compound 6, 4-[[4-[(5-[4-[5-(trifluoromethyl)pyridin-2-yl]piperazin-1-yl]pyridin-3-yl)oxy]cyclohexyl]amino]-2-(trifluoromethyl)benzonitrile]	≥ 90%	0.64 ×10⁻⁶ cm/s		reduction in nematode infestation [1]: 99%; reduction in nematode infestation (Haemonchus contortus [4]): 100%
O=C(CCC(F)(F)F)N1CCN(c2cc(O[C@H]3CC[C@H](Nc4ccc([N+](=O)[O-])c(C(F)(F)F)c4)CC3)ccn2)CC1 [Compound 24]	≥ 90%	4.46 ×10⁻⁶ cm/s	≥ 90%	
O=C(OC1CCCC1)N1CCN(c2ccnc(O[C@H]3CC[C@H](Nc4ccc([N+](=O)[O-])c(C(F)(F)F)c4)CC3)c2)CC1 [Compound 9, cyclopentyl 4-[2-[(4-[[4-nitro-3-(trifluoromethyl)phenyl]amino]cyclohexyl)oxy]pyridin-4-yl]piperazine-1-carboxylate]	≥ 90%	1.08 ×10⁻⁶ cm/s		
O=[N+]([O-])c1ccc(N[C@H]2CC[C@H](Oc3cncc(N4CCN(CC5CCCC5)CC4)c3)CC2)cc1C(F)(F)F [Compound 27]	≥ 90%	2.33 ×10⁻⁶ cm/s	≥ 90%	
CC(C)(C)CC(=O)N1CCN(c2cncc(O[C@H]3CC[C@H](Nc4ccc([N+](=O)[O-])c(C(F)(F)F)c4)CC3)c2)CC1 [Compound 35]	≥ 90%	4.99 ×10⁻⁶ cm/s		inhibition at 5 ppm ([5]; 24 h): ≥ 90%
O=C(Oc1ccc(F)cc1)N1CCN(c2cncc(O[C@H]3CC[C@H](Nc4ccc([N+](=O)[O-])c(C(F)(F)F)c4)CC3)c2)CC1 [Compound 11]	≥ 90%	0.55 ×10⁻⁶ cm/s		
CCCC(=O)N1CCN(c2cncc(O[C@H]3CC[C@H](Nc4ccc([N+](=O)[O-])c(C(F)(F)F)c4)CC3)c2)CC1 [Compound 31]	≥ 90%	10.7 ×10⁻⁶ cm/s		
c1ccc2[nH]c(-c3cscn3)nc2c1 [thiabendazole]				resistance of the isolate to thiabendazole [6]: 127 fold
CCCCC(=O)N1CCN(c2cc(O[C@H]3CC[C@H](Nc4ccc([N+](=O)[O-])c(C(F)(F)F)c4)CC3)ccn2)CC1 [Compound 10]	≥ 90%	5.81 ×10⁻⁶ cm/s		
CC(C)(C)OC(=O)N1CCN(c2cc(O[C@H]3CC[C@H](Nc4ccc([N+](=O)[O-])c(C(F)(F)F)c4)CC3)ccn2)CC1 [Compound 34]	≥ 90%	1.77 ×10⁻⁶ cm/s		inhibition at 5 ppm ([5]; 24 h): ≥ 90%
O=[N+]([O-])c1ccc(N[C@H]2CC[C@H](Oc3ccc(N4CCN(c5ccc6cc(C(F)(F)F)ccc6n5)CC4)nc3)CC2)cc1C(F)(F)F [Compound 102]		0.01 ×10⁻⁶ cm/s		
O=[N+]([O-])c1ccc(N[C@H]2CC[C@H](Oc3ccnc(N4CCN(CC5CCCC5)CC4)c3)CC2)cc1C(F)(F)F [Compound 37, 4-nitro-N-[4-([2-[4-(cyclopentylmethyl)piperazin-1-yl]pyridin-4-yl]oxy)cyclohexyl]-3-(trifluoromethyl)]	≥ 90%	2.55 ×10⁻⁶ cm/s	≥ 90%	
O=C(Cc1ccc(F)cc1)N1CCN(c2ccnc(O[C@H]3CC[C@H](Nc4ccc([N+](=O)[O-])c(C(F)(F)F)c4)CC3)c2)CC1 [Compound 23]	≥ 90%	1.09 ×10⁻⁶ cm/s	≥ 90%	
CC(C)(C)OC(=O)N1CCN(c2cncc(O[C@H]3CC[C@H](Nc4ccc([N+](=O)[O-])c(C(F)(F)F)c4)CC3)c2)CC1 [Compound 15]	≥ 90%	2.07 ×10⁻⁶ cm/s		
O=C(Cc1ccc(F)cc1)N1CCN(c2cncc(O[C@H]3CC[C@H](Nc4ccc([N+](=O)[O-])c(C(F)(F)F)c4)CC3)c2)CC1 [Compound 22]	≥ 90%	1.57 ×10⁻⁶ cm/s		inhibition at 10 µM ([5]; 10 μM, 24 hours): ≥ 90%
O=C(CC1CCC1)N1CCN(c2cc(O[C@H]3CC[C@H](Nc4ccc([N+](=O)[O-])c(C(F)(F)F)c4)CC3)ccn2)CC1 [Compound 8]	≥ 90%	4.01 ×10⁻⁶ cm/s	≥ 90%	
CCCOC(=O)N1CCN(c2ccnc(O[C@H]3CC[C@H](Nc4ccc([N+](=O)[O-])c(C(F)(F)F)c4)CC3)c2)CC1 [Compound 36]	≥ 90%	2.41 ×10⁻⁶ cm/s	≥ 90%	
O=[N+]([O-])c1ccc(N[C@H]2CC[C@H](Oc3cncc(N4CCN(Cc5ccc(C(F)(F)F)cc5)CC4)c3)CC2)cc1C(F)(F)F [Compound 18]	≥ 90%	0.53 ×10⁻⁶ cm/s	≥ 90%	
O=C(CC1CCCCC1)N1CCN(c2cc(O[C@H]3CC[C@H](Nc4ccc([N+](=O)[O-])c(C(F)(F)F)c4)CC3)ccn2)CC1 [Compound 14]	≥ 90%	2.28 ×10⁻⁶ cm/s	≥ 90%	
CCCCC(=O)N1CCN(c2ccnc(O[C@H]3CC[C@H](Nc4ccc([N+](=O)[O-])c(C(F)(F)F)c4)CC3)c2)CC1 [Compound 17]	≥ 90%	3.99 ×10⁻⁶ cm/s		inhibition at 5 ppm ([5]; 24 h): ≥ 90%
O=C(CC1CCCC1)N1CCN(c2cc(O[C@H]3CC[C@H](Nc4ccc([N+](=O)[O-])c(C(F)(F)F)c4)CC3)ccn2)CC1 [Compound 3, 2-Cyclopentyl-1-[4-(4-[[4-[[4-nitro-3-(trifluoromethyl)phenyl]amino]cyclohexyl]oxy]pyridin-2-yl)piperazin-1-yl]ethan-1-one]		2.64 ×10⁻⁶ cm/s	≥ 90%	
CCCOC(=O)N1CCN(c2cncc(O[C@H]3CC[C@H](Nc4ccc([N+](=O)[O-])c(C(F)(F)F)c4)CC3)c2)CC1 [Compound 21]	≥ 90%	3.45 ×10⁻⁶ cm/s		inhibition at 5 ppm ([5]; 24 h): ≥ 90%
CC(C)(C)OC(=O)N1CCN(c2ccnc(O[C@H]3CC[C@H](Nc4ccc([N+](=O)[O-])c(C(F)(F)F)c4)CC3)c2)CC1 [Compound 13]	≥ 90%	0.78 ×10⁻⁶ cm/s		inhibition at 5 ppm ([5]; 24 h): ≥ 90%
O=[N+]([O-])c1ccc(N[C@H]2CC[C@H](Oc3cncc(N4CCN(Cc5ccc(F)cc5)CC4)c3)CC2)cc1C(F)(F)F [Compound 4, 4-nitro-N-[4-[(5-[4-[(4-fluorophenyl)methyl]piperazin-1-yl]pyridin-3-yl)oxy]cyclohexyl]-3-(trifluoromethyl)aniline]		1.84 ×10⁻⁶ cm/s	≥ 90%	inhibition at 1 µM ([5]; 24 h): ≥ 90%
O=C(OC1CCCC1)N1CCN(c2cncc(O[C@H]3CC[C@H](Nc4ccc([N+](=O)[O-])c(C(F)(F)F)c4)CC3)c2)CC1 [Compound 196, cyclopentyl 4-(5-[[4-[[4-nitro-3-(trifluoromethyl)phenyl]amino]cyclohexyl]oxy]pyridin-3-yl)piperazine-1-carboxylate]	≥ 90%			inhibition at 5 ppm ([5]; 24 h): ≥ 90%
O=[N+]([O-])c1ccc(N[C@H]2CC[C@H](Oc3cc(N4CCN(CC5CCCC5)CC4)ccn3)CC2)cc1C(F)(F)F [Compound 47]	≥ 90%		≥ 90%	
CCC(=O)N1CCN(c2cncc(O[C@H]3CC[C@H](Nc4ccc([N+](=O)[O-])c(C(F)(F)F)c4)CC3)c2)CC1 [Compound 64]	≥ 90%			inhibition at 5 ppm ([5]; 24 h): ≥ 90%
